From US8242160B2, “Inhibitors of ubiquitin E1” (The United States of America, as represented by the …, priority 2005, dated 2012)
Where two headings read alike, the source gives them in different places.

What was measured:
GST-Mdm2 = test: Standard Mdm2 in vitro ubiquitination assay (E1+E2+E3), gel-based with 32P-labeled ubiquitin; assay type: biochemical
Excerpt: The ability of a compound to inhibit E1 activity may also be examined by determining the ability of the compound to inhibit Mdm2 autoubiquitination, which is dependent on E1, as well as E2. For in vitro assays Mdm2 can be expressed as a GST fusion. This allows for a high level of expression of protein that can be purified on glutathione Sepharose. Detection of ubiquitination of Mdm2 can be accomplished, for example, using ^32P-labeled ubiquitin, Western blotting with anti-ubiquitin, or by looking at a shift in the molecular weight of GST fusion by Western blotting with anti-GST. A variety of in vitro assays that measure levels of self-ubiquitinated Mdm2 can be employed, such as for example, immunoprecipitation of ubiquitinated Mdm2; gel assays wherein the amount of ubiquitinated Mdm2 is measured by densitometric scanning or where covalent attachment of radio-labeled or otherwise tagged ubiquitin to Mdm2 or p53 is measured; Western blot analysis, or other known techniques such as ELISA, immunoprecipitation, RIA, and the like. […]

cyclin E = test: Degradation of in vitro translated cyclin E in S-100 cytosolic extract; assay type: biochemical
Excerpt: Cytosolic extracts from cells (S-100) contain all the components for ubiquitination and proteasomal degradation. To further evaluate 4-[4-(5-nitro-furan-2-ylmethylene)-3,5-dioxo-pyrazolidin-1-yl]-benzoic acid methyl acid, we made use of in vitro translated cyclin E, which is degraded in S-100 in a time-dependent manner (FIG. 3, upper panel, lanes 1-4).

p53 [1] = test: Cellular p53 level by immunoblotting; assay type: cell-based; details: six hours treatment; RPE cells
Excerpt: FIG. 5A depicts the increase in the levels of Mdm2 and p53 in RPE cells after treatment with the E1 inhibitor 4-[4-(5-nitro-furan-2-ylmethylene)-3,5-dioxo-pyrazolidin-1-yl]-benzoic acid methyl acid.

p53 [2] = test: p53-driven luciferase reporter assay; assay type: cell-based
Excerpt: FIG. 5B depicts the results of reporter assays showing that the p53 induced by 4-[4-(5-nitro-furan-2-ylmethylene)-3,5-dioxo-pyrazolidin-1-yl]-benzoic acid methyl acid is transcriptionally active.

J588 mouse myeloma cells = test: Killing of myeloma cells; assay type: cell-based
Excerpt: FIG. 6B depicts the dose-depending killing of J588 mouse myeloma cells by proteasome and E1 inhibitor by 4-[4-(5-nitro-furan-2-ylmethylene)-3,5-dioxo-pyrazolidin-1-yl]-benzoic acid methyl acid.
While p53 induces apoptotic cell death in many tumor cells, it generally only induces growth arrest in untransformed cells. This has been the rationale for many studies targeting the p53 system.

NFκB = NFκB response element-driven luciferase reporter, IL-1 induced; assay type: cell-based, human; details: HeLa cells, 50 μM for 10 minutes, then IL-1 0-1.0 ng/ml for 2 hours
Experimental: HeLa cells (human epithelial cells) were transfected with a NFκB response element-driven luciferase reporter. The cells were treated with E1 41 (50 μM) for 10 minutes, or dimethyl sulfoxide (DMSO) control. Interleukin 1 (IL-1) was added to the cells for 2 hours. IL-1 was added at concentrations ranging from 0-1.0 ng/ml to induce activation of NFκB. An assay for luciferase activity was carried out according to the methods as described in the commercially available PROMEGA system for luciferase detection.

SMILES: COC(=O)c1ccc(N2NC(=O)/C(=C/c3ccc([N+](=O)[O-])o3)C2=O)cc1 [E1-41, 4-[4-(5-nitro-furan-2-ylmethylene)-3,5-dioxo-pyrazolidin-1-yl]-benzoic acid methyl acid]
- Mdm2 autoubiquitination in vitro (high molecular weight species) (GST-Mdm2): prevent generation of high molecular weight species promoted by Mdm2 in a dose-dependent manner
- Mdm2 autoubiquitination in vitro (high molecular weight species) (GST-Mdm2; listed as compound 41): inhibits autoubiquitination of Mdm2 in vitro
- cyclin E degradation in S-100 (cyclin E; no exogenous E1): block cyclin E degradation
- cyclin E degradation in S-100 after addition of purified exogenous E1 (cyclin E; purified exogenous E1 added to the reaction mixture): inhibition of cyclin E degradation was prevented
- cellular p53 level (p53 [1]): increased
- activation of p53-driven luciferase reporter (p53 [2]): activated a p53-driven luciferase reporter to a level comparable to adriamycin
- killing of myeloma cells (J588 mouse myeloma cells): kills myeloma cells in a dose-dependent manner
- IL-1 induced NFκB luciferase reporter activity (NFκB): reduction of luciferase activity
